According to ChEMBL document CHEMBL1201862, “PubChem BioAssay data set” (2004):
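Assay format: 96-well plates, 48-hour exposure. GI50: concentration for 50% inhibition of growth.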 The source made the active and inactive calls. Rule as the data show it: active = GI50 up to about 1.1 µM and inactive = higher.

What was measured:
Assay in all cases: NCI anticancer screen, dose series, 48 h
[1] = system: SNB-19
[2] = system: HOP-92
[3] = system: NCI-H23
[4] = system: NCI-H226
[5] = system: HCC 2998
[6] = system: LOX IMVI
[7] = system: UACC-257
[8] = system: MCF7
[9] = system: T47D
[10] = system: EKVX
[11] = system: Hs-578T
[12] = system: SF-539
[13] = system: SK-MEL-2
[14] = system: U-251
[15] = system: OVCAR-8
[16] = system: MDA-MB-435
[17] = system: SR
[18] = system: SN12C
[19] = system: CCRF-CEM

Compound	GI50 [1]	GI50 [2]	GI50 [3]	GI50 [4]	GI50 [5]	GI50 [6]	GI50 [7]	GI50 [8]	GI50 [9]	GI50 [10]	GI50 [11]	GI50 [12]	GI50 [13]	GI50 [14]	GI50 [15]	GI50 [16]	GI50 [17]	GI50 [18]	GI50 [19]
Nc1nc(O)c2c(n1)NCN(CCCN1CCOCC1)C2	> 100 µM (inactive)	> 100 µM (inactive)	> 100 µM (inactive)	> 100 µM (inactive)	> 100 µM (inactive)	> 100 µM (inactive)	> 100 µM (inactive)	> 100 µM (inactive)	> 100 µM (inactive)	> 100 µM (inactive)	> 100 µM (inactive)	> 100 µM (inactive)	> 100 µM (inactive)	> 100 µM (inactive)	> 100 µM (inactive)	> 100 µM (inactive)	> 100 µM (inactive)	> 100 µM (inactive)	–
COc1ccccc1N1C(=O)CSC1c1cc(OC)c(OC)c(OC)c1 (stereo not given)	–	50.9 µM (inactive)	> 100 µM (inactive)	> 50 µM (inactive)	> 100 µM (inactive)	35.6 µM (inactive)	> 84.7 µM (inactive)	16.3 µM (inactive)	12.4 µM (inactive)	> 100 µM (inactive)	> 59.7 µM (inactive)	15.8 µM (inactive)	55.7 µM (inactive)	31.1 µM (inactive)	> 100 µM (inactive)	14.7 µM (inactive)	10.7 µM (inactive)	> 100 µM (inactive)	13.2 µM (inactive)
CCOP(=O)(OCC)/C(F)=C/c1ccccc1	> 100 µM (inactive)	> 100 µM (inactive)	> 100 µM (inactive)	–	> 100 µM (inactive)	> 100 µM (inactive)	> 100 µM (inactive)	> 100 µM (inactive)	> 100 µM (inactive)	> 100 µM (inactive)	> 100 µM (inactive)	> 100 µM (inactive)	> 100 µM (inactive)	> 100 µM (inactive)	> 100 µM (inactive)	> 100 µM (inactive)	> 100 µM (inactive)	> 100 µM (inactive)	> 100 µM (inactive)
Cc1ccc2c(c1)[nH]c(=S)n2C=C1C(=O)CC(C)(C)CC1=O	> 100 µM (inactive)	> 100 µM (inactive)	> 100 µM (inactive)	> 100 µM (inactive)	> 100 µM (inactive)	> 100 µM (inactive)	> 100 µM (inactive)	> 100 µM (inactive)	> 100 µM (inactive)	18.9 µM (inactive)	> 100 µM (inactive)	> 100 µM (inactive)	> 100 µM (inactive)	> 100 µM (inactive)	> 100 µM (inactive)	> 100 µM (inactive)	> 100 µM (inactive)	> 100 µM (inactive)	> 100 µM (inactive)
O=C1/C(=C2/C(=O)N(c3ccccc3)c3ccccc32)Nc2ccccc21	29.6 µM (inactive)	25.9 µM (inactive)	63.5 µM (inactive)	27.9 µM (inactive)	32.3 µM (inactive)	78.3 µM (inactive)	37.4 µM (inactive)	11.9 µM (inactive)	0.571 µM (active)	24.2 µM (inactive)	58.2 µM (inactive)	–	35.5 µM (inactive)	31.8 µM (inactive)	47.8 µM (inactive)	66.8 µM (inactive)	61.2 µM (inactive)	59.8 µM (inactive)	92.3 µM (inactive)
CC(O)C1(CNc2cc(Cl)nc(N)n2)CCC1 (stereo not given)	> 100 µM (inactive)	> 100 µM (inactive)	> 100 µM (inactive)	> 100 µM (inactive)	> 100 µM (inactive)	> 100 µM (inactive)	37.8 µM (inactive)	> 100 µM (inactive)	33.3 µM (inactive)	59.3 µM (inactive)	> 100 µM (inactive)	> 100 µM (inactive)	> 100 µM (inactive)	> 100 µM (inactive)	> 100 µM (inactive)	> 100 µM (inactive)	> 100 µM (inactive)	> 100 µM (inactive)	> 100 µM (inactive)
CCCCNC1CCC2(SCCS2)c2[nH]c3ccccc3c21 (stereo not given)	29.6 µM (inactive)	28.4 µM (inactive)	32 µM (inactive)	42 µM (inactive)	18.9 µM (inactive)	2.64 µM (inactive)	4.09 µM (inactive)	3.11 µM (inactive)	2.56 µM (inactive)	37.2 µM (inactive)	29.8 µM (inactive)	13.7 µM (inactive)	–	43.1 µM (inactive)	14.4 µM (inactive)	5.21 µM (inactive)	3.76 µM (inactive)	37.7 µM (inactive)	3.2 µM (inactive)
CC(=O)NC1C(OCc2ccccc2)OC(CO)C(O)C1OCC(=O)NC(C)C(=O)NC(CCC(=O)Nc1ccc2c(c1)CN1C(=O)c3ccccc3C1=N2)C(N)=O (stereo not given)	> 100 µM (inactive)	76.7 µM (inactive)	> 100 µM (inactive)	–	> 100 µM (inactive)	> 100 µM (inactive)	> 100 µM (inactive)	53.2 µM (inactive)	42.8 µM (inactive)	> 100 µM (inactive)	> 100 µM (inactive)	> 100 µM (inactive)	> 100 µM (inactive)	> 100 µM (inactive)	> 100 µM (inactive)	> 100 µM (inactive)	> 100 µM (inactive)	> 100 µM (inactive)	> 100 µM (inactive)
COC(=O)c1ccc(/C=N/c2ccc(S(N)(=O)=O)cc2)cc1	> 100 µM (inactive)	65.5 µM (inactive)	0.0188 µM (active)	> 100 µM (inactive)	> 100 µM (inactive)	33.5 µM (inactive)	14.2 µM (inactive)	41.8 µM (inactive)	> 100 µM (inactive)	> 100 µM (inactive)	38.2 µM (inactive)	38.2 µM (inactive)	22 µM (inactive)	67 µM (inactive)	89.1 µM (inactive)	35.4 µM (inactive)	43 µM (inactive)	73.8 µM (inactive)	30.8 µM (inactive)
C[C@@H]([C@H]1CC[C@@]2(C)[C@@H]3CC[C@@H]4C(=CC3=CC[C@]12C)CC[C@H](N(C)C)C4(C)C)N(C)C [BUXAMINE A]	> 100 µM (inactive)	> 100 µM (inactive)	> 100 µM (inactive)	> 100 µM (inactive)	> 100 µM (inactive)	> 100 µM (inactive)	> 100 µM (inactive)	> 100 µM (inactive)	> 100 µM (inactive)	> 100 µM (inactive)	> 100 µM (inactive)	> 100 µM (inactive)	–	> 100 µM (inactive)	> 100 µM (inactive)	> 100 µM (inactive)	> 100 µM (inactive)	> 100 µM (inactive)	> 100 µM (inactive)
Oc1cnc2c(O)cccc2c1 [JINEOL]	58.9 µM (inactive)	41 µM (inactive)	–	24.2 µM (inactive)	43.4 µM (inactive)	26.2 µM (inactive)	56.6 µM (inactive)	30.7 µM (inactive)	29 µM (inactive)	15.9 µM (inactive)	> 100 µM (inactive)	30.3 µM (inactive)	64.4 µM (inactive)	48.9 µM (inactive)	26.2 µM (inactive)	80.2 µM (inactive)	40.6 µM (inactive)	37.5 µM (inactive)	–
